The values below come from US8524861B2, “Treatment of bacterial infections” (priority 2004, dated 2013).

Common to all, as to assay type: cell-based
The subject of assay [1] is Staphylococcus aureus (ATCC strain 6538P). As to conditions: for IC50: ATCC strain 6538P; for Activity against Staphylococcus, in particular S. aureus, in words: summary in description. How it is done:
(§1) Bacterial Stocks—ATCC derived stock bacteria were obtained from Oxoid Limited. Pseudomonas aeruginosa (ATCC strain 9027) or Staphylococcus aureus (ATCC strain 6538P) were obtained in ‘Cultiloop’ format. Stocks were prepared by inoculating 20 ml of LB broth with a single Cultiloop, and incubating overnight at 37° C. Cells present after overnight incubation were harvested by removing larger aggregates by centrifugation (3000 g, 10 minutes), and withdrawing 16 ml of the supernatant, which was likely to contain mainly planktonic bacteria. To this, 4 ml of sterile glycerol was added (the latter having been sterilised by autoclaving). The resultant suspension was divided between 15× 1 ml cryovials before freezing at −85° C.
(§2) Preliminary experiments were carried out to estimate the amount to dilute bacterial stocks which when on addition of 25 μl of diluted stock to 100 μl of fresh LB broth would result in bacteria in log phase growth after overnight incubation at 37° C.
(§3) The peptides were examined for antibacterial efficacy against Staphylococcus aureus. To test the efficacy of peptides, dilutions of test peptides or PBS (for use as a control) were prepared in LB broth, and 100 μl aliquots of these placed in 96-well plates. A vial of planktonic bacterial stock was thawed in a 37° C. incubator and diluted to the level previously determined which would produce log phase growth after overnight incubation (see above). 25 μl of this bacterial dilution was then added to the test wells (some wells containing LB broth without peptide were left without any bacterial inoculation, these being used as a blank). After overnight growth, the concentration of bacteria in individual wells was assessed by measuring absorbance at 620 nm, in a microplate spectrophotometer. The average absorbance of wells for specific concentrations of peptides was calculated, and from this the percentage inhibition (relative to untreated wells) was also calculated and plotted against concentration (along with an estimate of error on that % inhibition).
(§4) The inventor constructed an expanded library of peptides derived from either apolipoprotein B or apolipoprotein E in order to further evaluate polypeptides in accordance with the invention. Further experiments were then conducted to investigate the antibacterial activity of this peptide library against the bacteria P. aeroginosa, S. aureus and S. pneumoniae. The methods used to determine the IC50 values for each peptide were as described in the Example 1.

Assay [2] deals with Pseudomonas aeruginosa (ATCC strain 9027). The note with it: for IC50: ATCC strain 9027; for Effectiveness against Pseudomonadales, in particular P. aeruginosa, in words: summary in description. How it is done:
as §1, §2, §3
Peptides in accordance with the invention were also examined for antibacterial efficacy against Pseudomonas aeruginosa using the same technique as described above to calculate the IC50 values.
Points were obtained by dividing the average for six treated wells by the average for six untreated wells, and bars show an estimate of the error for these calculated values.
as §4

Assay [3] deals with Staphylococcus aureus, Pseudomonas aeruginosa, and Streptococcus pneumoniae. The assay can be described thus: Antibacterial activity, overall statements over the test bacteria.
Description: The inventors conducted exhaustive experiments to assess the antibacterial activity of peptides from apolipoproteins and derivatives thereof. Peptides and derivatives from ApoE and ApoB were a particular focus. […] Example 1 illustrates the efficacy of the polypeptides according to the invention compared to apoE141-149 and apoB3359-3367 (i.e. non-tandem repeats) and other peptides derived from apolipoproteins.
The activity of polypeptides in accordance with the invention can be seen in Tables 5, 6, 7 and 8.
as §3, §4

Where no end group is shown, it is not given here.

With “RWRKRWRWRKRWRWRKRW-NH2 (C-terminus assumed) [MU 84]”, the 50% inhibitory concentration (IC50) stood at 15 µM in assay [1] and 53 µM in assay [2].
As to “WRKWRKRWWRKWRKRWW-NH2 (C-terminus assumed) [MU_58]”, in assay [1], inhibition was half-maximal at 8 µM (IC50) and the “Activity against Staphylococcus, in particular S. aureus, in words” value (“Activity against Staphylococcus” for short) was “particularly active”. Further, the “Antibacterial activity, in words, bacterium not specified” value in assay [3] is recorded as “particularly effective”. Further, the IC50 in assay [2] is 7.5 µM.
With “Ac-WRKLRKRLLLRKLRKRLL-NH2 (N-terminus and C-terminus assumed) [MU_115]”, the IC50 in assay [1] is 9 µM; in assay [2], 3 µM. Further, the “Antibacterial activity, in words, bacterium not specified” value in assay [3] was “particularly effective”. Besides, the “Effectiveness against Pseudomonadales, in particular P. aeruginosa, in words” value in assay [2] is listed as “particularly effective”.
On to “WRKWRKRWWFRKWRKRWW-NH2 (C-terminus assumed) [MU_60]”, for which the IC50 amounted to 6 µM in assay [1] and 12.5 µM in assay [2]. The “Activity against Staphylococcus” value in assay [1] is on record as “particularly active”. Also, in assay [3], the “Antibacterial activity, in words, bacterium not specified” value is listed as “particularly effective”.
As for “WRKWRKRWRKWRKRW-NH2 (C-terminus assumed) [MU_59]”, the IC50 in assay [1] came to 11 µM; in assay [2], 7.5 µM. The “Antibacterial activity, in words, bacterium not specified” value in assay [3] is listed as “particularly effective”.
Taken in the same sequence, the figures for “Ac-LRKLRKRLLLRKLRKRWW-NH2 (N-terminus and C-terminus assumed) [MU_112]” were 7 µM, 7 µM and “particularly effective”.
Turning to “RWRKRWRKRWRKRWRK-NH2 (C-terminus assumed) [MU_71]”, the IC50 in assay [1] is 18.5 µM; in assay [2] it was 28 µM.
DRKDRKRDDDRKDRKRDD [MU_3]: the “Antibacterial activity, in words, bacterium not specified” value in assay [3] is on record as “do not show antibacterial activity”.
Same read-out and setting: the result for “LRKLRKRLL [apoE141-149, reference compound]” reads “no detectable antibacterial activity”; that for “RLTRKRGLK [apoB3359-3367, monomeric 9-mer of apolipoprotein B, reference compound]”, “no detectable antibacterial activity”.
As for “Ac-LRKRLLLRKLRKRLL-NH2 (N-terminus and C-terminus assumed) [GIN 02]”, in assay [2], the 50% inhibitory concentration (IC50) is 8.5 µM and the “Effectiveness against Pseudomonadales, in particular P. aeruginosa, in words” value is given as “particularly effective”.
Substance “Ac-LRKLRKRLLWRKWRKRLL-NH2 (N-terminus and C-terminus assumed) [MU_113]” returned an IC50 in assay [1] of 11 µM. In addition, in assay [2], the “Effectiveness against Pseudomonadales, in particular P. aeruginosa, in words” value is given as “particularly effective”.
As for “Ac-WRKWRKRLLLRKLRKRLL-NH2 (N-terminus and C-terminus assumed) [MU_114]”, in assay [1], the midpoint of inhibition, the IC50, lay at 5.5 µM and the “Activity against Staphylococcus” value was “particularly active”. The “Effectiveness against Pseudomonadales, in particular P. aeruginosa, in words” value in assay [2] is reported as “particularly effective”.
For the substance “WRWRRRWRKWRWRRRWRK-NH2 (C-terminus assumed) [MU_25]”, the IC50 in assay [1] and in assay [2] was over 53 µM each time.
The substance “Ac-LRKLRKRLLRLRKLRKRLLR-NH2 (N-terminus and C-terminus assumed) [MU_82]” returned an IC50 in assay [1] of 13 µM. Besides, the “Antibacterial activity, in words, bacterium not specified” value in assay [3] is given as “particularly effective”. Also, the “Effectiveness against Pseudomonadales, in particular P. aeruginosa, in words” value in assay [2] is on record as “particularly effective”.
Turning to CRKCRKRCCCRKCRKRCC [MU_12], the “Antibacterial activity, in words, bacterium not specified” value in assay [3] is “do not show antibacterial activity”.
For “WRKWRKRWWFRKFRKRFF-NH2 (C-terminus assumed) [MU_117]”, the IC50 in assay [1] turned out to be 7 µM; in assay [2] it was 10 µM.
Regarding “MRKLRKRLMMRKLRKRLM-NH2 (C-terminus assumed) [MU_43]”, the “Antibacterial activity, in words, bacterium not specified” value in assay [3] is “particularly effective”. In assay [2], it took 17 µM to reach half-maximal inhibition (IC50).
For “LRVRLASHLRKLRKRLLRDADDLQKRLAVY LRVRLASHLRKLRKRLLRDADDLQKRLAVY (LRVRLASHLRKLRKRLLRDADDLQKRLAVYLRVRLASHLRKLRKRLLRDADDLQKRLAVY) [tandem repeat of Azuma's peptide, 60-mer dimer of apoE133-162]”, the “Antibacterial activity, in words, bacterium not specified” value in assay [3] was “improved antibacterial efficacy”.
Consider “WRKWRKRWWRWRKWRKRWWR-NH2 (C-terminus assumed) [MU_83]”, for which the IC50 in assay [1] is 9 µM; in assay [2], 15 µM. For the same substance, the “Antibacterial activity, in words, bacterium not specified” value in assay [3] is on record as “particularly effective”.
On to “WRKWRKRFFWRKWRKRFF-NH2 (C-terminus assumed) [MU_61]”, for which, in assay [1], inhibition was half-maximal at 5 µM (IC50) and the “Activity against Staphylococcus” value was “particularly active”. The “Antibacterial activity, in words, bacterium not specified” value in assay [3] is on record as “particularly effective”. In assay [2], the midpoint of inhibition, the IC50, lay at 3 µM and the “Effectiveness against Pseudomonadales, in particular P. aeruginosa, in words” value was “particularly effective”.
With “LLRKRLKRLLLRKRLKRL-NH2 (C-terminus assumed) [MU_24]”, the results for the IC50 in assay [1] and in assay [2] were 34 µM and 7 µM, respectively. In addition, in assay [3], the “Antibacterial activity, in words, bacterium not specified” value is “particularly effective”.
For “MRKMRKRMMMRKMRKRMM-NH2 (C-terminus assumed) [MU_5]”, the IC50 in assay [1] and in assay [2] was over 53 µM throughout.
Take “IRKIRKRIIIRKIRKRII-NH2 (C-terminus assumed) [MU_8]”: the IC50 in assay [1] is over 53 µM; in assay [2], 45 µM.
On to “Ac-LRKLRKRLLWRKWRKRWW-NH2 (N-terminus and C-terminus assumed) [MU_111]”, for which the IC50 came to 7 µM in assay [1] and 12.5 µM in assay [2].
With “WRWKKKWRKWRWKKKWRK-NH2 (C-terminus assumed) [MU_26]”, the IC50 in assay [1] and in assay [2] was 52 µM in each case.
As to LRKLRKRLLLRK [GIN 05], in assay [3], the “Antibacterial activity, in words, bacterium not specified” value is “do not show antibacterial activity”.
Turning to “RKRGWKWRKRGWKW-NH2 (C-terminus assumed) [MU_73]”, the IC50 in assay [1] amounted to 22 µM; in assay [2], 42.5 µM. Moreover, the “Antibacterial activity, in words, bacterium not specified” value in assay [3] is “particularly effective”.
For the substance “WRKWRKRWRKWRKR-NH2 (C-terminus assumed) [GIN 32]”, inhibition in assay [2] was half-maximal at 5 µM (IC50).
As for “FRKFRKRFFFRKFRKRFF-NH2 (C-terminus assumed) [MU_7]”, the IC50 in assay [1] turned out to be 11 µM; in assay [2], 6 µM. Also, the “Antibacterial activity, in words, bacterium not specified” value in assay [3] is “particularly effective”.
In the case of “modified apoB3359-3367: modified form of the apoB3359-3367 9-mer; sequence only in the drawing of Table 1 (LRTRKRGRK) [reference compound]”, the “Antibacterial activity, in words, bacterium not specified” value in assay [3] is reported as “no detectable antibacterial activity”.
With “WRKWRKRWWWRKWRKRWW-NH2 (C-terminus assumed) [MU_4]”, the “Activity against Staphylococcus” value in assay [1] is listed as “particularly active”. Moreover, the “Antibacterial activity, in words, bacterium not specified” value in assay [3] is given as “particularly effective”.
Turning to “RLTRKRGRLTRKRG-NH2 (C-terminus assumed) [MU_74]”, the IC50 is over 53 µM in assay [1] and 31 µM in assay [2].
Taken in the same sequence, the figures for “RWRKRGRKRWRKRGRK-NH2 (C-terminus assumed) [MU_69]” were 27 µM and over 53 µM.
For “RWRKRWRKRWRKRWRK-NH2 (C-terminus assumed) [MU_37]”, the IC50 in assay [1] was 35 µM; in assay [2] it was 23 µM. The “Antibacterial activity, in words, bacterium not specified” value in assay [3] is listed as “particularly effective”.
Turning to “WRKRWWRWRKRWWR-NH2 (C-terminus assumed) [MU_81]”, the IC50 is 20 µM in assay [1] and 28 µM in assay [2].
“YRKYRKRYYYRKYRKRYY-NH2 (C-terminus assumed) [MU_6]”: the “Activity against Staphylococcus” value in assay [1] is “particularly active”. Moreover, in assay [2], the IC50 was over 53 µM.
Consider “WRKWRKFFFRKWRKRWW-NH2 (C-terminus assumed) [MU_116]”, for which the IC50 in assay [1] stood at 6.5 µM; in assay [2] it was 14 µM.

A word on the IC50: it is the concentration that gives 50% inhibition.
